Experimental data reported in ChEMBL document CHEMBL2439971, “Design, synthesis and antiproliferative evaluation of fluorenone analogs with DNA topoisomerase I inhibitory properties” (Bioorg Med Chem, 2013).

What was measured:
Type in all cases: functional
HT-29 = assay: Cytotoxicity against human HT-29 cells after 48 hrs by sulforhodamine B assay; conditions: HT-29, 48 h
HCC 2998 = assay: Cytotoxicity against human HCC2998 cells after 48 hrs by sulforhodamine B assay; conditions: HCC 2998, 48 h
NCI-H322M = assay: Cytotoxicity against human NCI-H322M cells after 48 hrs by sulforhodamine B assay
NCI-H23 = assay: Cytotoxicity against human NCI-H23 cells after 48 hrs by sulforhodamine B assay; conditions: NCI-H23, 48 h
SR = assay: Cytotoxicity against human SR cells after 48 hrs by sulforhodamine B assay
K562 = assay: Cytotoxicity against human K562 cells after 48 hrs by sulforhodamine B assay; conditions: K562, 48 h
DU-145 = assay: Cytotoxicity against human DU145 cells at 10 uM after 48 hrs by sulforhodamine B assay relative to control
PC-3 = assay: Cytotoxicity against human PC3 cells at 10 uM after 48 hrs by sulforhodamine B assay relative to control
UO-31 = assay: Cytotoxicity against human UO31 cells at 10 uM after 48 hrs by sulforhodamine B assay relative to control
TK-10 [1] = assay: Cytotoxicity against human TK10 cells at 10 uM after 48 hrs by sulforhodamine B assay relative to control
SN12C = assay: Cytotoxicity against human SN12C cells at 10 uM after 48 hrs by sulforhodamine B assay relative to control
RXF 393 = assay: Cytotoxicity against human RXF393 cells at 10 uM after 48 hrs by sulforhodamine B assay relative to control
NCI/ADR-RES = assay: Cytotoxicity against human NCI/ADR-RES cells at 10 uM after 48 hrs by sulforhodamine B assay relative to control
OVCAR-5 = assay: Cytotoxicity against human OVCAR5 cells at 10 uM after 48 hrs by sulforhodamine B assay relative to control
OVCAR-4 = assay: Cytotoxicity against human OVCAR4 cells at 10 uM after 48 hrs by sulforhodamine B assay relative to control
IGROV-1 [2] = assay: Cytotoxicity against human IGROV1 cells at 10 uM after 48 hrs by sulforhodamine B assay relative to control
SK-MEL-28 = assay: Cytotoxicity against human SK-MEL-28 cells at 10 uM after 48 hrs by sulforhodamine B assay relative to control
SK-MEL-2 = assay: Cytotoxicity against human SK-MEL-2 cells at 10 uM after 48 hrs by sulforhodamine B assay relative to control
M14 = assay: Cytotoxicity against human M14 cells at 10 uM after 48 hrs by sulforhodamine B assay relative to control
Malme-3M [3] = assay: Cytotoxicity against human MALME-3M cells at 10 uM after 48 hrs by sulforhodamine B assay relative to control
HCT-15 = assay: Cytotoxicity against human HCT15 cells at 10 uM after 48 hrs by sulforhodamine B assay relative to control
HCT-116 = assay: Cytotoxicity against human HCT116 cells at 10 uM after 48 hrs by sulforhodamine B assay relative to control
NCI-H522 = assay: Cytotoxicity against human NCI-H522 cells at 10 uM after 48 hrs by sulforhodamine B assay relative to control
NCI-H460 = assay: Cytotoxicity against human NCI-H460 cells at 10 uM after 48 hrs by sulforhodamine B assay relative to control
HOP-62 = assay: Cytotoxicity against human HOP62 cells at 10 uM after 48 hrs by sulforhodamine B assay relative to control
MDA-MB-468 = assay: Cytotoxicity against human MDA-MB-468 cells after 48 hrs by sulforhodamine B assay; conditions: MDA-MB-468, 48 h
MDA-MB-231 = assay: Cytotoxicity against human MDA-MB-231 cells after 48 hrs by sulforhodamine B assay; conditions: MDA-MB-231, 48 h
[4] = Cytotoxicity against human Hs 578T cells after 48 hrs by sulforhodamine B assay
TK-10 [5] = assay: Cytotoxicity against human TK10 cells after 48 hrs by sulforhodamine B assay; conditions: TK-10, 48 h
ACHN = assay: Cytotoxicity against human ACHN cells after 48 hrs by sulforhodamine B assay
786-0 = assay: Cytotoxicity against human 786-0 cells after 48 hrs by sulforhodamine B assay; conditions: 786-0, 48 h
OVCAR-8 = assay: Cytotoxicity against human OVCAR8 cells after 48 hrs by sulforhodamine B assay; conditions: OVCAR-8, 48 h
IGROV-1 [6] = assay: Cytotoxicity against human IGROV1 cells after 48 hrs by sulforhodamine B assay; conditions: IGROV-1, 48 h
UACC-62 = assay: Cytotoxicity against human UACC62 cells after 48 hrs by sulforhodamine B assay; conditions: UACC-62, 48 h
Malme-3M [7] = assay: Cytotoxicity against human MALME-3M cells after 48 hrs by sulforhodamine B assay
U-251 = assay: Cytotoxicity against human U251 cells after 48 hrs by sulforhodamine B assay; conditions: U-251, 48 h
SF-539 = assay: Cytotoxicity against human SF539 cells after 48 hrs by sulforhodamine B assay; conditions: SF-539, 48 h
SF-295 = assay: Cytotoxicity against human SF295 cells after 48 hrs by sulforhodamine B assay; conditions: SF-295, 48 h
KM12 = assay: Cytotoxicity against human KM12 cells after 48 hrs by sulforhodamine B assay; conditions: KM12, 48 h
[8] = read-out: LC50 (the source's name)

`CCCCNCC(=O)Nc1ccc2c(c1)C(=O)c1cc(NC(=O)CNCCCC)ccc1-2` gave a GI50 (HT-29) of 1.1 µM, a TGI (HT-29) of 2.53 µM and a CC50 (HT-29; [8]) of 5.86 µM. For the same compound, the GI50 (HCC 2998) was 1.54 µM, the TGI (HCC 2998) was 2.95 µM and the CC50 (HCC 2998; [8]) was 5.66 µM. The GI50 (NCI-H322M) was 2.12 µM, the TGI (NCI-H322M) was 6.93 µM and the CC50 (NCI-H322M; [8]) was 31.5 µM. The GI50 (NCI-H23) was 2.63 µM, the TGI (NCI-H23) was 10.1 µM and the CC50 (NCI-H23; [8]) was 35.7 µM. It also gave a GI50 (SR) of 0.22 µM, a TGI (SR) of 0.53 µM and a CC50 (SR; [8]) of 3.44 µM. The GI50 (K562) was 0.39 µM, the TGI (K562) was 1.56 µM and the CC50 (K562; [8]) was 5.7 µM. It also gave an Activity (DU-145) of 35.16%, an Activity (PC-3) of -4.48% and an Activity (UO-31) of -42.01%. The Activity (TK-10 [1]) was 7.32%, the Activity (SN12C) was 67.76% and the Activity (RXF 393) was -76.54%. For the same compound, the Activity (NCI/ADR-RES) was 64.82%, the Activity (OVCAR-5) was 93.22% and the Activity (OVCAR-4) was -29.46%. It also gave an Activity (IGROV-1 [2]) of 46.91%, an Activity (SK-MEL-28) of -81.88% and an Activity (SK-MEL-2) of -63.34%. For the same compound, the Activity (M14) was -91.02%, the Activity (Malme-3M [3]) was -68.3% and the Activity (HCT-15) was 24.17%. The Activity (HCT-116) was -89.71%, the Activity (NCI-H522) was -50.74% and the Activity (NCI-H460) was -27.51%. It also gave an Activity (HOP-62) of -5.44%, a GI50 (MDA-MB-468) of 1.85 µM and a TGI (MDA-MB-468) of 3.57 µM. It also gave a CC50 (MDA-MB-468; [8]) of 6.89 µM, a GI50 (MDA-MB-231) of 1.39 µM and a TGI (MDA-MB-231) of 2.9 µM. For the same compound, the CC50 (MDA-MB-231; [8]) was 6.02 µM, the GI50 [4] was 2.63 µM and the TGI [4] was 9.23 µM. The CC50 [4, 8] was 70.9 µM, the GI50 (TK-10 [5]) was 2.43 µM and the TGI (TK-10 [5]) was 6.67 µM. It also gave a CC50 (TK-10 [5]; [8]) of 24.1 µM, a GI50 (ACHN) of 1.4 µM and a TGI (ACHN) of 4.14 µM. For the same compound, the CC50 (ACHN; [8]) was 14.9 µM, the GI50 (786-0) was 1.43 µM and the TGI (786-0) was 2.82 µM. For the same compound, the CC50 (786-0; [8]) was 5.56 µM, the GI50 (OVCAR-8) was 2.19 µM and the TGI (OVCAR-8) was 6.16 µM. For the same compound, the CC50 (OVCAR-8; [8]) was 28.9 µM, the GI50 (IGROV-1 [6]) was 2.24 µM and the TGI (IGROV-1 [6]) was 6.53 µM. For the same compound, the CC50 (IGROV-1 [6]; [8]) was 40.6 µM, the GI50 (UACC-62) was 1.61 µM and the TGI (UACC-62) was 3.03 µM. The CC50 (UACC-62; [8]) was 5.69 µM, the GI50 (Malme-3M [7]) was 1.94 µM and the TGI (Malme-3M [7]) was 3.98 µM. It also gave a CC50 (Malme-3M [7]; [8]) of 8.17 µM, a GI50 (U-251) of 1.31 µM and a TGI (U-251) of 2.65 µM. The CC50 (U-251; [8]) was 5.34 µM, the GI50 (SF-539) was 1.76 µM and the TGI (SF-539) was 3.26 µM. For the same compound, the CC50 (SF-539; [8]) was 6.05 µM, the GI50 (SF-295) was 1.67 µM and the TGI (SF-295) was 3.47 µM. For the same compound, the CC50 (SF-295; [8]) was 7.2 µM, the GI50 (KM12) was 1.64 µM and the TGI (KM12) was 3.38 µM. The CC50 (KM12; [8]) was 7 µM.
